Measured values reported in US20050202093A1, “Prolonged suppression of electrical activity in excitable tissues” (priority 2002, published 2005).

Experiments:
[1] = test system: hippocampus of pilocarpine-treated rats; assay: Hippocampal histology two weeks after seizure induction (thionin cell loss score, Timm stain score); format: in vivo, Sprague Dawley rats; settings: dosage 5 μg
Protocol: Two weeks after induction of seizure, animals were sacrificed and prepared for routine histology and Timm histochemistry. Following deep anesthesia with sodium pentobarbital (100 mg/kg), rats were perfused transcardially with 300 ml sodium sulfide medium (2.295 g Na2S, 2.975 g NaH2PO4/H2O in 500 ml H2O) followed by 300 ml 4% paraformaldehyd were postfixed in 4% paraformaldehyde for 24 h and then placed in a 30% sucrose solution until they sank to the bottom of the vial. Coronal sections through the entire extent of the hippocampus were cut at 40 μm on a freezing microtome and sections were stored in phosphate buffered saline. Every fourth section was stained for mossy fibers using Timm stain as follows. The sections were developed in the dark for 40-45 min in a solution of 50% Arabic gum (120 ml), 10 ml of citric acid (51 g/100 ml H2O), 10 ml sodium citrate (47 g/100 ml H2O), 3.47 g hydroquinone in 60ml, and 212.25 mg AgNO3. Following washing, the slides were dehydrated in alcohol, cleared in xylene, and mounted on slides with Permount (Fisher Scientific, Pittsburgh, Pa.). Timm staining was analyzed using a scoring system (0 to 5) for terminal sprouting in the CA3 and supragranular regions (Holmes G L, Gaiarsa J L, Chevassus-Au-Louis N, Ben-Ari Y. Consequences of neonatal seizures in the rat: morphological and behavioral effect. Ann. Neurol. 1998; 44: 845-857; Holmes G L, Sarkisian M, Ben-Ari Y, Chevassus-Au-Louis N. Mossy fiber sprouting following recurrent seizures during early development in rats. J. Comp. Neurol. 1999; 404: 537-553; each of which is incorporated herein by reference). […] Slides were analyzed for cell loss in the CA3, CA1 and hilar region using a semi-quantitative visual scoring system (0 to 5) (Mikati M A, Holmes G L, Chronopoulos A, et al. Phenobarbital modifies seizure-related brain injury in the developing brain. Ann. Neurol. 1994; 36: 425-433; incorporated herein by reference). Cell loss was assessed both ipsilateral and contralateral to the injection site. […]

pilocarpine-treated rats = assay: Focal pilocarpine-induced seizures after intrahippocampal pretreatment, behavior scored 0-6; format: in vivo, Sprague Dawley rats
Protocol: The method is similar to that described by Cavalheiro et al. (Cavalheiro E A, Czuzwar S J, Kleinrok S. Intracerebral cholinomimetics produce seizure-related brain damage in rats. Brit. J. Pharmacol. 1983; 79: 284P; incorporated herein by reference). Animals were anesthetized with pentobarbital (40 mg/kg) and an electrode-cannula guide (Plastic one, USA) was stereotactically implanted in the CA3 region of the dorsal hippocampus (lateral from midline 3.5 mm, posterior from bregma 3.8 mm, and 3.8 mm deep from skull; FIG. 35 in (Paxinos G, Watson C. The rat brain in stereotaxic coordinates, 4th edition. San Diego: Academic Press, 1998; incorporated herein by reference)). The electrode-cannula guide was fixed to skull using dental cement and skull screws. After surgery, a dummy cannula was placed into the guide cannula to prevent occlusion. One week later the rats received 30 μl of one anticonvulsant or control treatment (encapsulated or free) through the cannula using a microinfusion pump (Baxter, model AS40A) for 15 min at a rate of 0.12 ml/hr. Thirty minutes after completion of these treatments, 40 mM pilocarpine was infused for 50 min at a rate of 0.12 ml/hr. Subsequently, continuous EEGs were recorded from the electrode-cannulae, and the animals were videotaped for a minimum of two hours. […]

Structure (SMILES): NCc1cc(=O)[nH]o1 [free muscimol, Muscimol]
- Timm scores CA3 region ([1]; n=4, mean ± SD): 1.48 ± 0.63
- Timm scores Supragranular ([1]; n=4, mean ± SD): 1.75 ± 0.28
- Total cell loss ([1]; n=4, thionin staining, mean ± SD): 6.27 ± 0.57
- seizure activity as measured by behavior score, versus normal saline (pilocarpine-treated rats; 5 μg intrahippocampal prior to pilocarpine, 120 minute time course, n=4): reduces seizure activity
- mortality (pilocarpine-treated rats; unencapsulated comparison groups to the 10 μg and 20 μg particle groups): high mortality
